Measurements published in the CheMixHub viscosity set.

Experiment: xn = mol fraction of the nth substance listed

CCCCN(CCCC)CCCC + CC(C)(C)O
viscosity [mPa·s], 101 kPa
Conditions | x2 = 0.0998 | x2 = 0.2 | x2 = 0.3 | x2 = 0.4 | x2 = 0.5001 | x2 = 0.5999 | x2 = 0.7 | x2 = 0.8 | x2 = 0.9006 | x2 = 0.9503
303.15 K | 1.189 | 1.202 | 1.267 | 1.324 | 1.394 | 1.499 | 1.637 | 1.878 | 2.323 | 2.732
308.15 K | 1.083 | 1.108 | 1.145 | 1.189 | 1.242 | 1.323 | 1.43 | 1.598 | 1.91 | 2.204
313.15 K | 0.9915 | 1.009 | 1.037 | 1.072 | 1.112 | 1.172 | 1.251 | 1.376 | 1.599 | 1.809
318.15 K | 0.9113 | 0.9236 | 0.9451 | 0.9707 | 1.003 | 1.048 | 1.104 | 1.197 | 1.356 | 1.514
323.15 K | 0.8405 | 0.8479 | 0.8641 | 0.8824 | 0.908 | 0.9401 | 0.9817 | 1.051 | 1.166 | 1.288

CN(C)c1ccccc1 + CCCCCO
303.15 K, 101 kPa
Conditions | viscosity [mPa·s]
x1 = 0.0799 | 2.75
x1 = 0.121 | 2.704
x1 = 0.2034 | 2.605
x1 = 0.2784 | 2.506
x1 = 0.3584 | 2.392
x1 = 0.4284 | 2.284
x1 = 0.5047 | 2.158
x1 = 0.5722 | 2.039
x1 = 0.6406 | 1.913
x1 = 0.7103 | 1.777
x1 = 0.781 | 1.635
x1 = 0.8168 | 1.562
x1 = 0.9058 | 1.374

C[N+](CCO)(CCO)CCO.[Cl-] + NC(N)=O
100 kPa, x1 = 0.5
Conditions | viscosity [mPa·s]
293.15 K | 6026
298.15 K | 3662
303.15 K | 2352
308.15 K | 1540
313.15 K | 1026
318.15 K | 717
323.15 K | 505

CCCCOC(=O)c1ccccc1C(=O)OCCCC + CCCCCCCCO
303.15 K, 101.33 kPa
Conditions | viscosity [mPa·s]
x1 = 0.1003 | 5.9
x1 = 0.2011 | 5.876
x1 = 0.3001 | 6.078
x1 = 0.3996 | 6.444
x1 = 0.5 | 6.901
x1 = 0.5999 | 7.6
x1 = 0.6958 | 8.396
x1 = 0.7975 | 9.53
x1 = 0.898 | 11.05

CN(C)c1ccccc1 + CC(C)CO
303.15 K, 101 kPa
Conditions | viscosity [mPa·s]
x1 = 0.0545 | 2.804
x1 = 0.1056 | 2.755
x1 = 0.1875 | 2.663
x1 = 0.2546 | 2.576
x1 = 0.3526 | 2.434
x1 = 0.4278 | 2.316
x1 = 0.5047 | 2.189
x1 = 0.5869 | 2.044
x1 = 0.6514 | 1.926
x1 = 0.7348 | 1.767
x1 = 0.8025 | 1.628
x1 = 0.8621 | 1.501
x1 = 0.9285 | 1.345

C=CC#N + ClC(Cl)(Cl)Cl
viscosity [mPa·s], 101 kPa
Conditions | 293.15 K | 298.15 K | 303.15 K | 313.15 K | 323.15 K
x1 = 0.007 | 0.988 | 0.911 | 0.847 | 0.749 | 0.671
x1 = 0.028 | 0.979 | 0.903 | 0.841 | 0.772 | 0.695
x1 = 0.126 | 0.853 | 0.783 | 0.721 | 0.661 | 0.616

CCCCC(C)O (stereo unspecified) + CCCCCCCCCCCC
298.15 K, 101 kPa
Conditions | viscosity [mPa·s]
x2 = 0.0555 | 3.6
x2 = 0.0999 | 3.24
x2 = 0.1555 | 2.84
x2 = 0.1999 | 2.55
x2 = 0.2554 | 2.24
x2 = 0.2999 | 2.01
x2 = 0.3555 | 1.77
x2 = 0.3998 | 1.6
x2 = 0.4555 | 1.42
x2 = 0.4999 | 1.31
x2 = 0.5554 | 1.19
x2 = 0.5998 | 1.12
x2 = 0.6554 | 1.05
x2 = 0.6999 | 1.02
x2 = 0.7555 | 1
x2 = 0.7997 | 1
x2 = 0.8555 | 1.02
x2 = 0.8998 | 1.04
x2 = 0.9555 | 1.09

CCCCN(CCCC)CCCC + C=C(C)C(=O)OC
303.15 K, 101 kPa
Conditions | viscosity [mPa·s]
x2 = 0.21 | 0.9849
x2 = 0.3945 | 0.8491
x2 = 0.4886 | 0.7874
x2 = 0.6041 | 0.7144
x2 = 0.7985 | 0.6078

CN(C)c1ccccc1 + CCC(=O)O
viscosity [mPa·s], 101 kPa
Conditions | x2 = 0.1014 | x2 = 0.2025 | x2 = 0.305 | x2 = 0.3966 | x2 = 0.5057 | x2 = 0.6027 | x2 = 0.6922 | x2 = 0.8012 | x2 = 0.8905 | x2 = 0.8987
298.15 K | 1.364 | 1.416 | 1.478 | 1.527 | 1.583 | 1.651 | 1.69 | 1.657 | 1.467 | –
303.15 K | – | – | – | – | – | – | – | – | – | 1.225

CCCCC(C)O (stereo unspecified) + CC(C)OC(C)C
viscosity [mPa·s], 100 kPa
Conditions | x2 = 0.0806 | x2 = 0.1592 | x2 = 0.2412 | x2 = 0.3508 | x2 = 0.4391 | x2 = 0.5594 | x2 = 0.6497 | x2 = 0.7378 | x2 = 0.8483 | x2 = 0.9386
293.15 K | 4.51 | 3.97 | 3.48 | 2.91 | 2.49 | 1.97 | 1.6 | 1.26 | 0.84 | 0.531
298.15 K | 3.61 | 3.16 | 2.76 | 2.3 | 1.97 | 1.56 | 1.275 | 1.02 | 0.706 | 0.465
303.15 K | 2.89 | 2.53 | 2.2 | 1.83 | 1.567 | 1.25 | 1.034 | 0.84 | 0.6 | 0.42
308.15 K | 2.38 | 2.08 | 1.825 | 1.53 | 1.32 | 1.06 | 0.88 | 0.715 | 0.52 | 0.38
313.15 K | 2 | 1.75 | 1.54 | 1.29 | 1.115 | 0.906 | 0.756 | 0.62 | 0.46 | 0.35
318.15 K | 1.69 | 1.49 | 1.31 | 1.11 | 0.962 | 0.783 | 0.66 | 0.55 | 0.416 | 0.32
323.15 K | 1.44 | 1.27 | 1.12 | 0.95 | 0.83 | 0.68 | 0.58 | 0.49 | 0.38 | 0.295
